Measured values from PubChem BioAssay AID1963841 (Molecular Pharmacology Branch, DTP, NCI, 2024).

Tested on: 439559-082-T-J2-PDC spheroid viability
Assay: Anticancer human tumor 439559-082-T-J2-PDC patient-derived colon adenocarcinoma cell line growth inhibition [POLQ]
Conditions: spheroids with HUVEC and MSC; for IC50: curve of first compound; for viability, T/C: stronger effect = lower value
Procedure, shortened: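 Complex spheroid viability model combining PDC tumour cells with endothelial (HUVEC) and MSC stromal cells. Novobiocin, ART-558 or RP6685 were tested singly and in combination with standard and investigational anticancer drugs. Each was titrated in half-log steps from near clinical Cmax, or from 10 microM where Cmax was unknown.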

[1] = second compound 0.0316 µM, first compound 0.0316 µM
[2] = second compound 0.0316 µM, first compound 0.1 µM
[3] = second compound 0.0316 µM, first compound 0.316 µM
[4] = second compound 0.0316 µM, first compound 1 µM
[5] = second compound 0.0316 µM, first compound 3.16 µM
[6] = second compound 0.0316 µM, first compound 10 µM
[7] = second compound 0.1 µM, first compound 0.0316 µM
[8] = second compound 0.1 µM, first compound 0.1 µM
[9] = second compound 0.1 µM, first compound 0.316 µM
[10] = second compound 0.1 µM, first compound 1 µM
[11] = second compound 0.1 µM, first compound 3.16 µM
[12] = second compound 0.1 µM, first compound 10 µM
[13] = second compound 0.316 µM, first compound 0.0316 µM
[14] = second compound 0.316 µM, first compound 0.1 µM
[15] = second compound 0.316 µM, first compound 0.316 µM
[16] = second compound 0.316 µM, first compound 1 µM
[17] = second compound 0.316 µM, first compound 3.16 µM
[18] = second compound 0.316 µM, first compound 10 µM
[19] = second compound 1 µM, first compound 0.0316 µM
[20] = second compound 1 µM, first compound 0.1 µM
[21] = second compound 1 µM, first compound 0.316 µM
[22] = second compound 1 µM, first compound 1 µM
[23] = second compound 1 µM, first compound 3.16 µM
[24] = second compound 1 µM, first compound 10 µM
[25] = second compound 3.16 µM, first compound 0.0316 µM
[26] = second compound 3.16 µM, first compound 0.1 µM
[27] = second compound 3.16 µM, first compound 0.316 µM
[28] = second compound 3.16 µM, first compound 1 µM
[29] = second compound 3.16 µM, first compound 3.16 µM
[30] = second compound 3.16 µM, first compound 10 µM
[31] = second compound 10 µM, first compound 0.0316 µM
[32] = second compound 10 µM, first compound 0.1 µM
[33] = second compound 10 µM, first compound 0.316 µM
[34] = second compound 10 µM, first compound 1 µM
[35] = second compound 10 µM, first compound 3.16 µM
[36] = second compound 10 µM, first compound 10 µM
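Further: spheroids exposed to compounds for seven days before readout.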
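Wherever viability, T/C is given: 100% = DMSO vehicle control viability.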

Compound: COc1cc(C2c3cc4c(cc3C(OC3OC5COC(C)OC5C(O)C3O)C3COC(=O)C23)OCO4)cc(OC)c1O (centres undefined) + Cc1cccc(N(C)C(=O)C2C(O)CCN2c2nc(C)cc(C(F)(F)F)c2C#N)c1
- IC50 (second compound 0.0316 µM): > 10 µM
- IC50 (second compound 0.1 µM): > 10 µM
- IC50 (second compound 0.316 µM): > 10 µM
- IC50 (second compound 1 µM): > 10 µM
- IC50 (second compound 3.16 µM): > 10 µM
- IC50 (second compound 10 µM): > 10 µM
- viability, T/C [1]: 90.7%
- viability, T/C [2]: 99.6%
- viability, T/C [3]: 95.6%
- viability, T/C [4]: 95.3%
- viability, T/C [5]: 76.8%
- viability, T/C [6]: 68.8%
- viability, T/C [7]: 103%
- viability, T/C [8]: 101%
- viability, T/C [9]: 98.1%
- viability, T/C [10]: 89.8%
- viability, T/C [11]: 83.4%
- viability, T/C [12]: 79.1%
- viability, T/C [13]: 96.9%
- viability, T/C [14]: 92.4%
- viability, T/C [15]: 95.2%
- viability, T/C [16]: 88.2%
- viability, T/C [17]: 82.1%
- viability, T/C [18]: 69.1%
- viability, T/C [19]: 108%
- viability, T/C [20]: 90.8%
- viability, T/C [21]: 93.5%
- viability, T/C [22]: 90.4%
- viability, T/C [23]: 84.2%
- viability, T/C [24]: 73.4%
- viability, T/C [25]: 90.9%
- viability, T/C [26]: 102%
- viability, T/C [27]: 90.8%
- viability, T/C [28]: 83.3%
- viability, T/C [29]: 82.1%
- viability, T/C [30]: 70.6%
- viability, T/C [31]: 92.4%
- viability, T/C [32]: 82.5%
- viability, T/C [33]: 95.4%
- viability, T/C [34]: 86.8%
- viability, T/C [35]: 71%
- viability, T/C [36]: 59.9%

Compound: O=c1[nH]cc(F)c(=O)[nH]1 + Cc1cccc(N(C)C(=O)C2C(O)CCN2c2nc(C)cc(C(F)(F)F)c2C#N)c1
- IC50 (second compound 0.0316 µM): > 10 µM
- IC50 (second compound 0.1 µM): > 10 µM
- IC50 (second compound 0.316 µM): > 10 µM
- IC50 (second compound 1 µM): > 10 µM
- IC50 (second compound 3.16 µM): > 10 µM
- IC50 (second compound 10 µM): > 10 µM
- viability, T/C [1]: 102%
- viability, T/C [2]: 93.3%
- viability, T/C [3]: 82.2%
- viability, T/C [4]: 78.3%
- viability, T/C [5]: 71.9%
- viability, T/C [6]: 66.7%
- viability, T/C [7]: 106%
- viability, T/C [8]: 91.4%
- viability, T/C [9]: 80.8%
- viability, T/C [10]: 76.6%
- viability, T/C [11]: 73.4%
- viability, T/C [12]: 70%
- viability, T/C [13]: 104%
- viability, T/C [14]: 97.4%
- viability, T/C [15]: 84.6%
- viability, T/C [16]: 75.1%
- viability, T/C [17]: 73.1%
- viability, T/C [18]: 68.8%
- viability, T/C [19]: 97.5%
- viability, T/C [20]: 94.4%
- viability, T/C [21]: 84.3%
- viability, T/C [22]: 73.7%
- viability, T/C [23]: 76.7%
- viability, T/C [24]: 71%
- viability, T/C [25]: 93.1%
- viability, T/C [26]: 94%
- viability, T/C [27]: 84.5%
- viability, T/C [28]: 72%
- viability, T/C [29]: 71%
- viability, T/C [30]: 68%
- viability, T/C [31]: 91.8%
- viability, T/C [32]: 83.3%
- viability, T/C [33]: 78.7%
- viability, T/C [34]: 70.8%
- viability, T/C [35]: 71%
- viability, T/C [36]: 64%
